Source: US11020358B2, “Method for the anti-senescence of and/or rejuvenating stem cells” (GWO XI STEM CELL APPLIED TECHNOLOGY CO., LTD., priority 2014, dated 2021)

Columns and labels:
Assay type in all cases: cell-based, human
ADSCs [1] = assay: Microarray analysis of gene expression in ADSCs; details: H2O2+TC6 group ADSCs, H2O2 group set as one fold; p < 0.05
Protocol: Four portions of equal volume of the above culture medium containing the sub-cultured ADSCs were separately handled by adding thereinto H2O2 (purchased from Sigma-Aldrich) at a final concentration of 100 μM and reacting for 2 hours to induce senescence of the ADSCs, replacing the culture medium with a fresh culture medium, adding thereinto TC (trans-cinnamaldehyde, purchased from Sigma-Aldrich) at a final concentration of 0, 2, 4 or 6 μM and reacting for 6 hours, so as to obtain “H2O2 group (i.e., treated with H2O2 for 2 hours, but not treated with TC),” “H2O2+TC2 group (i.e., treated with H2O2 for 2 hours and then treated with 2 μM of TC for 6 hours),” “H2O2+TC4 group (i.e., treated with H2O2 for 2 hours and then treated with 4 μM of TC for 6 hours),” and “H2O2+TC6 group (i.e., treated with H2O2 for 2 hours and then treated with 6 μM of TC for 6 hours)” ADSCs. Each of the total cellular RNA of ADSCs of “H2O2 group” and “H2O2+TC6 group” from Experiment (3-1) was handled as follows. […] The products thus obtained are single strand cDNA of these genes. The cDNA was hybridized with a gene chip (Affymetrix GeneChip Human Genome U133 plus 2.0 Array, Affymetrix). Then, the gene chip was scanned and analyzed with a microarray scanner system (Gene Chip® Scanner 3000).

ADSCs [2] = assay: Semiquantitative RT-PCR of senescence, cell cycle and pluripotency genes in ADSCs
Protocol: Four portions of equal volume of the above culture medium containing the sub-cultured ADSCs were separately handled by adding thereinto H2O2 (purchased from Sigma-Aldrich) at a final concentration of 100 μM and reacting for 2 hours to induce senescence of the ADSCs, replacing the culture medium with a fresh culture medium, adding thereinto TC (trans-cinnamaldehyde, purchased from Sigma-Aldrich) at a final concentration of 0, 2, 4 or 6 μM and reacting for 6 hours, so as to obtain “H2O2 group (i.e., treated with H2O2 for 2 hours, but not treated with TC),” “H2O2+TC2 group (i.e., treated with H2O2 for 2 hours and then treated with 2 μM of TC for 6 hours),” “H2O2+TC4 group (i.e., treated with H2O2 for 2 hours and then treated with 4 μM of TC for 6 hours),” and “H2O2+TC6 group (i.e., treated with H2O2 for 2 hours and then treated with 6 μM of TC for 6 hours)” ADSCs.
The total cellular RNA of the ADSCs, BMMSCs and WJSCs in each sample of the group obtained from Example 1 (1) were extracted with an RNeasy Mini kit (purchased from Qiagen), and then reverse transcribed into cDNA by a reverse transcription kit (RT Pre Mix, purchased from iNtRON Biotechnology).
Each of the cDNA of the ADSCs of “untreated group,” “H2O2 group” and “H2O2+TC6 group” from Experiment (3-1) was handled as follows. […] The mixture was then placed in a revers transcription polymerase chain reaction (RT-PCR) machine. The RT-PCR reaction conditions were set as follows: i) 94° C. for 30 seconds, 55° C. for 30 seconds, and […] for 60 seconds, repeated for 30 cycles; ii) 72° C. for 10 minutes; and iii) cooling to 4° C. to stop the reaction. The RT-PCR product was analyzed by 2% agarose gel electrophoresis at a voltage of 100 volts for 30 minutes. Then, the gel was stained with ethidium bromide (EtBr) for 10 minutes, and photographed by a gel image documentation system (DOC PRINT DP-001FDC, VilberLourmat France).

ADSCs [3] = assay: Adipogenic differentiation assay (Oil Red O); details: H2O2 group ADSCs (100 μM 2 h), compared to untreated group
Protocol: Four portions of equal volume of the above culture medium containing the sub-cultured ADSCs were separately handled by adding thereinto H2O2 (purchased from Sigma-Aldrich) at a final concentration of 100 μM and reacting for 2 hours to induce senescence of the ADSCs, replacing the culture medium with a fresh culture medium, adding thereinto TC (trans-cinnamaldehyde, purchased from Sigma-Aldrich) at a final concentration of 0, 2, 4 or 6 μM and reacting for 6 hours, so as to obtain “H2O2 group (i.e., treated with H2O2 for 2 hours, but not treated with TC),” “H2O2+TC2 group (i.e., treated with H2O2 for 2 hours and then treated with 2 μM of TC for 6 hours),” “H2O2+TC4 group (i.e., treated with H2O2 for 2 hours and then treated with 4 μM of TC for 6 hours),” and “H2O2+TC6 group (i.e., treated with H2O2 for 2 hours and then treated with 6 μM of TC for 6 hours)” ADSCs. […]
After being photographed, the oil droplets were extracted from the cells in each sample with isopropanol containing 4% Nonidet P-40. The absorbance of the oil droplets at a wavelength of 510 nm (i.e., OD510) of each sample were measured, wherein the absorbance corresponds to the number of cells in orange-red color (i.e., cells present after adipogenic differentiation).

[4] = H2O2+TC6 group ADSCs compared to H2O2 group
[5] = H2O2 group ADSCs compared to untreated group

## O=C/C=C/c1ccccc1 [TC, trans-cinnamaldehyde]
ADSCs [1]
  CCND1 gene expression level: 5.8 Folds
  E2F6 gene expression level: 2.2 Folds
  EIF5 gene expression level: 3.4 Folds
  GADD45B gene expression level: −4.6 Folds
  NYFA gene expression level: 7.2 Folds
  PCNA gene expression level: 2 Folds
  PIM1 gene expression level: −4.4 Folds
  POLR3H gene expression level: 2.2 Folds
  SIRT1 gene expression level: 2.4 Folds
  hTERT gene expression level: 2 Folds
  p16 gene expression level: −1.8 Folds
  p53 gene expression level: −1 Folds
ADSCs [2]; [4]
  expression level of the NANOG gene (semiquantitative RT-PCR): did not show significant difference
  expression level of the OCT4 gene (semiquantitative RT-PCR): did not show significant difference
  expression level of the SIRT1 gene (semiquantitative RT-PCR): significantly increased
  expression level of the p21 gene (semiquantitative RT-PCR): significantly decreased
  expression level of the p53 gene (semiquantitative RT-PCR): significantly decreased

## OO [H2O2, reference compound]
ADSCs [3]
  cell number after adipogenic differentiation (OD510): significantly reduced
ADSCs [2]; [5]
  expression level of the SIRT1 gene (semiquantitative RT-PCR): significantly decreased
  expression level of the p21 gene (semiquantitative RT-PCR): significantly increased
  expression level of the p53 gene (semiquantitative RT-PCR): significantly increased
